For one compound, IC50 results are on record in patent US20140066620A1, “PYRIMIDINE SUBSTITUTED PURINE DERIVATIVES” (VERASTEM, INC., priority 2007, published 2014).

As a reminder, the IC50 is the concentration that inhibits the measured activity by half.

For one test, the system named is DU145 cells. Kind of test: Cell-based proliferation assay, DU145. To be noted: Homo sapiens, DU-145, 96 h treatment, Celltiter96 Aqueous One Solution. As to the method: Human cancer cell lines PC3 and DU145 (human prostate cancer cell lines), were obtained from ATCC. They were cultured in the media according to the ATCC work instructions. PC3 and DU145 cells were seeded at 1,000 cells per well in 96-well plates, respectively. The plates were incubated at 37° C., 5% CO2, for 24 h. Cells were treated with compounds at various concentrations for 96 h. Cell proliferation was then quantified using Celltiter96 Aqueous One Solution Cell Proliferation Assay from Promega (Madison Wis.). Dose response curves were plotted to determine IC50 values for the compounds using XL-fit (ID Business Solution, Emeryville, Calif.).

For the next test, the target named is T1, Truncated mTOR kinase (Homo sapiens, UniProt P42345).
T1 construct: Truncated mTOR kinase and His-tagged 4eBP1 were produced in-house
The test can be described thus: mTOR Assay (radiometric phosphorylation of 4eBP1). The format is biochemical. To be noted: 4eBP1 substrate, 10 μM ATP, 1 hour at room temperature. As to the method:
Truncated mTOR kinase and His-tagged 4eBP1 were produced in-house. [γ^33P]-ATP was purchased from Amersham (GE Healthcare). All chemicals, unless otherwise stated, were from Sigma-Aldrich.
Phosphorylation assays were initially performed in a final volume of 20 μL in 384-well polypropylene plate (Greiner). […] The reaction was initiated by adding 10 μL/well of 20 μM ATP solution (final assay concentration 10 μM ATP and 0.4 μCi/well of [γhu 33P]-ATP). After 1 hour incubation at room temperature, the reaction was terminated with 40 μL/well of 20 mM EDTA/1 mM ATP solution.
50 μL/well of the stopped reaction mix was then transferred to 384-well MultiScreenHTS-PH filter plate (Millipore) pre-added with 50 μL/well of 1% phosphoric acid. The plate was washed 4 times with 120 μL/well of 0.5% phosphoric acid via vacuum filtration. Finally, 10 μL/well of Optiphase™ SuperMix liquid scintillation cocktail (Perkin Elmer) was added. After minimum 1 hour of incubation, counting was performed in a Wallac MicroBeta TriLux scintillation counter using coincidence counting mode with crosstalk correction.

Test [1] deals with T2, Recombinant PI3K p110α/p85 (Homo sapiens, UniProt P42336).
T2 construct: made in house
The test can be described thus: PI3K Assay (radiometric lipid kinase assay). The format is biochemical. The note with it: p110α/p85, 2 μM ATP, 1 hour at RT; read-out: IC50 (PI3Kα). How it is done:
Recombinant PI3K p110α/p85 was prepared in-house. Phosphatidylinositol (PtdIns), phosphotidylserine (PtdSer) and all other unspecified chemicals were purchased from Sigma-Aldrich. [γ^33P]ATP and Optiphase scintillant were obtained from Perkin Elmer.
Assays were performed in a final assay volume of 25 μL in 384-well Maxisorp plates (Nunc). […] Maxisorp plates were coated with 20 μL/well of a 1:1 mixture of PtdIns and PtdSer [0.1 mg/mL each dissolved in chloroform:ethanol (3:7)] and left overnight in a fume hood at room temperature (RT) to dry.
The reaction was incubated for 1 hour at RT and terminated with 30 μL/well of 50 mM EDTA solution. The plate was then washed twice with TBS, dried, and added with 30 μL/well of scintillant before it was counted in a MicroBeta Trilux.

T1 sequence (P42345 2156-2549 limits assumed): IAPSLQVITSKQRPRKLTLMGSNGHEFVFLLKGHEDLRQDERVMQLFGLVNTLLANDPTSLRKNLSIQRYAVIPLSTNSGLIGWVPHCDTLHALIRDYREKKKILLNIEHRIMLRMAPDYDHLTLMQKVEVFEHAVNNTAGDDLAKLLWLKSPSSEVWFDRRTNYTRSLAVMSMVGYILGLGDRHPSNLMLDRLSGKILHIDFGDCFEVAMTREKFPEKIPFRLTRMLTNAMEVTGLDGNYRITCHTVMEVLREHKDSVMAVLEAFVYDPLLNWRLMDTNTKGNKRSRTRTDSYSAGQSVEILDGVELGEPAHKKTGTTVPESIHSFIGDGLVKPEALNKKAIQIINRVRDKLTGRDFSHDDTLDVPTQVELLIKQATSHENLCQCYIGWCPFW
T2 sequence (P42336 whole entry): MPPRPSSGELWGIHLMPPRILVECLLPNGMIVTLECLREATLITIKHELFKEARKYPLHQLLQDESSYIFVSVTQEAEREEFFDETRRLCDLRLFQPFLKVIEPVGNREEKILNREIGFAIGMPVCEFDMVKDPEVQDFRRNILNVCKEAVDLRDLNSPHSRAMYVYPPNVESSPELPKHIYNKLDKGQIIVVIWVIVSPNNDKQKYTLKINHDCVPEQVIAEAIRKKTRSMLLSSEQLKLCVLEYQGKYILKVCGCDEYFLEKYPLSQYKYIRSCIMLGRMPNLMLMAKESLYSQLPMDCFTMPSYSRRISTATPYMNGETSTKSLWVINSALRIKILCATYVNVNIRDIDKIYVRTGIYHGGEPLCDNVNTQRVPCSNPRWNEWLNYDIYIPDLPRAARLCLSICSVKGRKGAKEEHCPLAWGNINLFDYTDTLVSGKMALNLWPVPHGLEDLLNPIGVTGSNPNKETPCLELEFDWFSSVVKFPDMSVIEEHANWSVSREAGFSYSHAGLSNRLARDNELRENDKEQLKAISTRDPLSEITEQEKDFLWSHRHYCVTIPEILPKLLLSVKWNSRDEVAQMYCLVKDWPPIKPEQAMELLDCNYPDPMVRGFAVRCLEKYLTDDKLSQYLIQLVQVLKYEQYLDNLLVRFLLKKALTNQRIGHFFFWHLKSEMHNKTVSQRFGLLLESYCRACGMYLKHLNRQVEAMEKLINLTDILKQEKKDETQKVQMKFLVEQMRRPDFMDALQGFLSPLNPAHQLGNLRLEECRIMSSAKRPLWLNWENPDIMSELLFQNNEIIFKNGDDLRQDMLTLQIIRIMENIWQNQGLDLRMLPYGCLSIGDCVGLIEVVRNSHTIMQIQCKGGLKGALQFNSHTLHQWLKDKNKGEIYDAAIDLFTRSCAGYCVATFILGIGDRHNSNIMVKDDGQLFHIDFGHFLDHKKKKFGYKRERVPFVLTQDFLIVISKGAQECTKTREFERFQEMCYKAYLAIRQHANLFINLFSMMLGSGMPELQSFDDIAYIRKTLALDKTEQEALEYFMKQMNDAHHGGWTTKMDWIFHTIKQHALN
T2 sequence (P27986 whole entry partner): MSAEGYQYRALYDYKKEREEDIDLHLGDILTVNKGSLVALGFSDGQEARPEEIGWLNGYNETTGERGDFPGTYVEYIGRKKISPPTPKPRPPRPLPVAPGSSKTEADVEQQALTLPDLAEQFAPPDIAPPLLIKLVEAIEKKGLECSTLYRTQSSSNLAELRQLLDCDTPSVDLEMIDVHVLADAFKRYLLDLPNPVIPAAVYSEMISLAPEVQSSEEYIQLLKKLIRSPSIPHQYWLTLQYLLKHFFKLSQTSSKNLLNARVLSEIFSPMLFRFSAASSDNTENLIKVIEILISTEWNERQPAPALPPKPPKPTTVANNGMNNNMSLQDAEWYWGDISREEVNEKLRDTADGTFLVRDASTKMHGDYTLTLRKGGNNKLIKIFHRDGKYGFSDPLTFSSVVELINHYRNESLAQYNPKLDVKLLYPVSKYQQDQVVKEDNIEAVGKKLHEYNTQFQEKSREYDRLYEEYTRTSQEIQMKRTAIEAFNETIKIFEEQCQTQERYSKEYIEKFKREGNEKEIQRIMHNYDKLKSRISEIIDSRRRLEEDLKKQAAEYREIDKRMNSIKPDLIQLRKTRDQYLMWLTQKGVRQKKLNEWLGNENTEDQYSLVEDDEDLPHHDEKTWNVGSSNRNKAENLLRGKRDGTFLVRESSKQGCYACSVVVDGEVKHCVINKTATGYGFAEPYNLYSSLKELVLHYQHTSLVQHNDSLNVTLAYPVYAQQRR

With `Nc1ncc(-c2nc(N3CCOCC3)nc3c2ncn3CC2CC2)cn1` [Compound 3], the IC50 is 1000 to 5000 nM in the test on DU145 cells, less than 1000 nM against Truncated mTOR kinase and less than 1000 nM in test [1].
